Ki data for 25 compounds are collected here from paper PMC6010127, “Sulfonamide inhibition studies of two β-carbonic anhydrases from the ascomycete fungus Sordaria macrospora, CAS1 and CAS2” (Journal of Enzyme Inhibition and Medicinal Chemistry, 2018).

SMILES strings stand for the structures.

Assay [1] deals with T1, CAS1 (Sordaria macrospora, UniProt F7VW42).
T1 construct: gene SMAC_03420; recombinant, obtained in-house
T1 sequence (F7VW42 1-234): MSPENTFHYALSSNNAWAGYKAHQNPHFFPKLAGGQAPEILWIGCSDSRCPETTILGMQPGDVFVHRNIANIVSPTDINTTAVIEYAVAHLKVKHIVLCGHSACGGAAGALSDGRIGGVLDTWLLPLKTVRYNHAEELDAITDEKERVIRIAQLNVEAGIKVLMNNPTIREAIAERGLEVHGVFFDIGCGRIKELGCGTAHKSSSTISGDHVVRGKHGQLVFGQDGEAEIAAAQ
In words: biochemical. Also noted: stopped-flow CO2 hydration assay, phenol red 557 nm, pH 8.3, 15 min preincubation; KI by Cheng-Prusoff. Conditions: read-out: KI^a (nM) / CAS1^c / β. The procedure: (§1) An Applied Photophysics stopped-flow instrument has been used for assaying the CA catalysed CO2 hydration activity. Phenol red (at a concentration of 0.2 mM) has been used as indicator, working at the absorbance maximum of 557 nm, with 20 mM TRIS (pH 8.3) as buffer, and 20 mM Na2SO4 (for maintaining constant the ionic strength), following the initial rates of the CA-catalysed CO2 hydration reaction for a period of 10–100 s. The CO2 concentrations ranged from 1.7 to 17 mM for the determination of the kinetic parameters and inhibition constants. For each inhibitor at least six traces of the initial 5–10% of the reaction have been used for determining the initial velocity. The uncatalysed rates were determined in the same manner and subtracted from the total observed rates. Stock solutions of inhibitor (0.1 mM) were prepared in distilled-deionized water and dilutions up to 0.01 nM were done thereafter with the assay buffer. Inhibitor and enzyme solutions were preincubated together for 15 min at room temperature prior to assay, in order to allow for the formation of the E–I complex. The inhibition constants were obtained by non-linear least-squares methods using PRISM 3 and the Cheng–Prusoff equation, as reported earlier, and represent the mean from at least three different determinations. All CA isofoms were recombinant ones obtained in-house as reported earlier[2]^,[9].

Assay [2] deals with T2, CAS2 (Sordaria macrospora, UniProt C1L336).
T2 construct: recombinant, obtained in-house
T2 sequence (C1L336 54-284): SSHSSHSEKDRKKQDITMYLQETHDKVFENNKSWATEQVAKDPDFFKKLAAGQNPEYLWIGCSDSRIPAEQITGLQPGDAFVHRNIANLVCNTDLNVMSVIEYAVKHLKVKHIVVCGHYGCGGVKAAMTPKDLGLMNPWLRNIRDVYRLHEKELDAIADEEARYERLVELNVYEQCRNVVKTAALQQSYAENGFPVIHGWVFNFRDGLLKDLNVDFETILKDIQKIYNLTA
In words: biochemical. More on the design: stopped-flow CO2 hydration assay, phenol red 557 nm, pH 8.3, 15 min preincubation; KI by Cheng-Prusoff. The procedure: as §1, with “For each inhibitor at least six traces of the initial 5–10% of the reaction have been used for determining the initial velocity.” left out

The target of assay [3] is T1, CAS1. Nature of the assay: stopped-flow CO2 hydration assay. It is filed as biochemical.
The target in assay [4] is T2, CAS2. Nature of the assay: stopped-flow CO2 hydration assay. The format is biochemical. The following applies: read-out: KI^a (nM) / CAS2^c / β.
Setting [5] is: read-out: KI^a (nM) / CAS2^c / β, inhibitor.
Where [6] appears, read: read-out: KI^a (nM) / CAS1^c / β.

For the compound `Cn1nc(S(N)(=O)=O)sc1=N` [compound 14], the Ki amounted to 7210 nM at CAS1 [1] (inhibitor) and 280 nM at CAS2 [2] (setting [5]). Take `CCN[C@H]1CN(CCCOC)S(=O)(=O)c2sc(S(N)(=O)=O)cc21` [BRZ, brinzolamide]: the Ki on CAS1 [3] (setting [6]) was 451 nM; at CAS2 [4], 739 nM.

In the case of `CC(=O)N=c1sc(S(N)(=O)=O)nn1C` [MZA, methazolamide], the Ki at CAS1 [3] (setting [6]) is 421 nM. For the compound `NS(=O)(=O)c1ccc(CO)cc1` [compound 16, 4-hydroxymethyl-benzenesulfonamide], the Ki on CAS2 [4] came to 92.5 nM; on CAS1 [1] it was 4520 nM. Turning to `CC1(C)O[C@@H]2[C@@H](CO[C@@]3(COS(N)(=O)=O)OC(C)(C)O[C@@H]23)O1` [TPM, topiramate], the figures for the Ki at CAS1 [3] (setting [6]) and at CAS2 [4] were 414 nM and 673 nM, respectively. Regarding `O=C1NS(=O)(=O)c2ccccc21` [SAC], the Ki at CAS1 [1] was determined as 5280 nM; on CAS2 [2] it was 7070 nM.

Turning to `NS(=O)(=O)c1ccc(S(=O)(=O)Nc2cccc3c(Cl)c[nH]c23)cc1` [IND, indisulam], the Ki was 216 nM on CAS2 [4] and 4240 nM at CAS1 [1]. For the compound `CCN1CCCC1CNC(=O)c1cc(S(N)(=O)=O)ccc1OC` (stereo not shown) [SLP, sulpiride], the values for the Ki on CAS2 [4] and at CAS1 [1] were 670 nM and 1720 nM, respectively. As for `NS(=O)(=O)Cc1noc2ccccc12` [ZNS], the values for the Ki on CAS1 [1] and on CAS2 [2] were 1820 nM and 1890 nM, respectively. Turning to `Nc1nnc(S(N)(=O)=O)s1` [compound 13, 5-amino-1,3,4-thiadiazole-2-sulfonamide], the values for the Ki on CAS2 [4] and at CAS1 [1] were 48.1 nM and 8650 nM, respectively. With `Nc1ccc(S(N)(=O)=O)cc1F` [compound 7], the Ki on CAS2 [2] was found to be 7360 nM. In the case of `Nc1ccc(S(N)(=O)=O)cc1Br` [compound 9], at CAS2 [2] (setting [5]), the Ki stood at 12000 nM. Turning to `Nc1ccc(S(N)(=O)=O)cc1F` [compound 7, 3-fluorosulfanilamide], on CAS1 [3] (setting [6]), the Ki amounted to 43.2 nM.

As to `Nc1ccc(S(N)(=O)=O)cc1` [compound 2, sulfanilamide], the Ki on CAS1 [3] turned out to be 144 nM.

For the compound `NS(=O)(=O)c1ccc(N2CCCCS2(=O)=O)cc1` [SLT, sulthiame], the Ki at CAS2 [4] is 496 nM; on CAS1 [1], 3210 nM. Take `Nc1ccc(S(N)(=O)=O)cc1Br` [compound 9, bromosubstituted derivative 9]: the Ki at CAS1 [3] (pH 8.3, 20 mM TRIS, 20 mM Na2SO4, CO2 1.7-17 mM, 15 min preincubation at room temperature, read-out: KI^a (nM) / CAS1^c / β) turned out to be 580 nM. For `Cc1ccc(-c2cc(C(F)(F)F)nn2-c2ccc(S(N)(=O)=O)cc2)cc1` [CLX, celecoxib], the Ki on CAS2 [4] was 857 nM; on CAS1 [1] it was 2510 nM. For `Nc1ccc(S(N)(=O)=O)cc1Cl` [compound 8, 3-chlorosulfanilamide], the Ki on CAS1 [3] (setting [6]) stood at 79.6 nM.

Regarding `Cc1onc(-c2ccccc2)c1-c1ccc(S(N)(=O)=O)cc1` [VLX], the Ki came to 4430 nM on CAS1 [1] and 3730 nM at CAS2 [2]. Take `Cc1ccc(S(N)(=O)=O)cc1` [compound 4]: the Ki at CAS2 [2] was found to be 6900 nM. On CAS2 [2], `Nc1ccc(S(N)(=O)=O)cc1Cl` [compound 8] registered a Ki of 9120 nM. For `NS(=O)(=O)c1cc(Cl)c(Cl)c(S(N)(=O)=O)c1` [DCP], the Ki on CAS1 [1] is 1220 nM; at CAS2 [2], 5790 nM. As for `Cc1ccc(S(N)(=O)=O)cc1` [compound 4, tosylamide], the Ki at CAS1 [3] (setting [6]) is 47.1 nM.

Take `NS(=O)(=O)c1nnc(NS(=O)(=O)c2ccccc2)s1` [BZA, benzolamide]: the Ki came out at 410 nM at CAS2 [4] and 2110 nM on CAS1 [1]. `NS(=O)(=O)c1cc2c(cc1Cl)NCNS2(=O)=O` [HCT]: the Ki on CAS1 [1] came out at 3350 nM; on CAS2 [2] it was 6680 nM.
